Test results: patent US20110269825A1, “Modified Thromboxane A2 Receptor Promoter Sequence” (priority 2008, published 2011)

Experiments:
Prm3 = conditions: cited from earlier work
Prm1 = conditions: cited from earlier work
Egr1 = experiment: Immunoblot analysis of Egr1 expression in HEL cells; assay type: cell-based, human; conditions: 100 nM PMA plus 10 μM PD98059, 16 h
Procedure: The expression of WT1, Sp1, Egr1, NF-E2, GATA-1 and Ets-1 proteins in HEL cells was confirmed by western blot analysis. Briefly, whole cell protein was resolved by SDS-PAGE (10% acrylamide gels) and transferred to polyvinylidene difluoride (PVDF) membrane according to standard methodology. […] For PMA studies, HEL cells were pre-incubated for the indicated amount of time with 100 nM PMA, with 10 μM PD98059, with 100 nM PMA plus 10 μM PD98059 or, as a control, with vehicle [0.1% (v/v) DMSO]. Whole cell protein (60 μg per lane) was resolved by SDS-PAGE (10% acrylamide gels) and transferred to polyvinylidene difluoride (PVDF) membrane according to standard methodology.

[1] = system: Prm1-directed luciferase expression; experiment: Effect of PMA, PD98059 or Vitamin D3 on Prm1-directed luciferase expression in HEL cells; assay type: cell-based, human; conditions: 100 nM PMA plus 10 μM PD98059, 16 h
Procedure: HEL and EA.hy 926 cells were co-transfected with the various pGL3Basic-recombinant plasmids (2 mg), encoding firefly luciferase, along with pRL-TK (200 ng), encoding renilla luciferase, using DMRIE-C® transfection reagent. HEK293, WI-38, and 1° hAoSMCs were co-transfected with the pGL3Basic-recombinant plasmids (2 mg), along with pRL-TK (200 ng), using Effectene transfection reagent. In all cases, cells co-transfected with pRL-TK (200 ng) in the presence of either the pGL3Control vector (firefly luciferase gene under the control of the SV40 promoter; 2 mg) or the promoter-less pGL3Basic empty vector (2 mg), which served as positive and negative controls, respectively. […] Relative firefly to renilla luciferase activity (arbitrary units) was calculated as a ratio and was expressed in relative luciferase units (RLU). To investigate the effect of over-expression of exon 5 (+ or −) or KTS (+ or −) isoforms of WT1 on Prm1-directed gene expression, HEL cells were co-transfected with either pGL3b:Prm1 or pGL3b:Prm1D (1.5 μg) plus 200 ng of pRL-TK along with either pcDNA3:WT1 (+/+), pcDNA3:WT1 (+/−), pcDNA3:WT1 (−/+), pcDNA3:WT1 (−/−) (0.5 μg), or as a control, pcDNA3 (0.5 μg). […] The plasmid pCMV5-NAB1, containing the entire coding sequence for NAB1, was generously donated by Dr. Gerald Thiel, University of Saarland Medical Center, Homburg, Germany, and has been described previously (Thiel et al., 2000). To investigate the effect of over-expression of NAB1 on the PMA-mediated induction of Prm1-directed gene expression, HEL cells were transiently co-transfected with pGL3b:Prm1 (2 μg) plus pRL-TK (200 ng) along with either pCMV5 (control) or pCMV:NAB1 (1 μg).

[2] = system: Prm1-directed luciferase expression; experiment: Effect of over-expression of WT1 isoforms, Egr1 or NAB1 on Prm1-directed luciferase expression in HEL cells; assay type: cell-based, human
Procedure: HEL and EA.hy 926 cells were co-transfected with the various pGL3Basic-recombinant plasmids (2 mg), encoding firefly luciferase, along with pRL-TK (200 ng), encoding renilla luciferase, using DMRIE-C® transfection reagent. HEK293, WI-38, and 1° hAoSMCs were co-transfected with the pGL3Basic-recombinant plasmids (2 mg), along with pRL-TK (200 ng), using Effectene transfection reagent. In all cases, cells co-transfected with pRL-TK (200 ng) in the presence of either the pGL3Control vector (firefly luciferase gene under the control of the SV40 promoter; 2 mg) or the promoter-less pGL3Basic empty vector (2 mg), which served as positive and negative controls, respectively. Firefly and renilla luciferase expression was assayed some 48 h post-transfection using the Dual-Luciferase Reporter Assay System™, as described (Coyle et al., 2005). Relative firefly to renilla luciferase activity (arbitrary units) was calculated as a ratio and was expressed in relative luciferase units (RLU). To investigate the effect of over-expression of exon 5 (+ or −) or KTS (+ or −) isoforms of WT1 on Prm1-directed gene expression, HEL cells were co-transfected with either pGL3b:Prm1 or pGL3b:Prm1D (1.5 μg) plus 200 ng of pRL-TK along with either pcDNA3:WT1 (+/+), pcDNA3:WT1 (+/−), pcDNA3:WT1 (−/+), pcDNA3:WT1 (−/−) (0.5 μg), or as a control, pcDNA3 (0.5 μg). […]

In the case of CCCCC/C=C/C=C1/C(=O)C=C[C@@H]1C/C=C\CCCC(=O)O [15d-PGJ2, 15-deoxy-Δ12,14-prostaglandin J2], the “Effect on transcriptional activity of Prm3” value (Prm3) is given as “suppressed the transcriptional activity of Prm3” and the “Effect on Prm1” value (Prm1) is given as “had no effect on Prm1”.

With COc1cccc(-c2cc(=O)c3ccccc3o2)c1N [PD98059, 2-(2-amino-3-methoxyphenyl)-4H-1-benzopyran-4-one] the “Effect on PMA-induction of Egr1 protein expression” value (Egr1) was “completely abolished the PMA-induction of Egr1 protein expression”, the “Effect on luciferase expression directed by the Prm1K sub-fragment” value [1] was “neither PMA alone (p=0.4721) nor PMA plus PD98059 (p=0.2693) had any significant effect” and the “PMA-induction of Prm1-directed luciferase expression in the presence of PD98059” value ([1]; 4.3-fold with PMA alone) was 2.3 fold.

B1: NAB1: Egr1 co-repressor NGFI-A-binding protein 1, over-expressed from pCMV5-NAB1 (protein)
chain: MAAALPRTLGELQLYRILQKANLLSYFDAFIQQGGDDVQQLCEAGEEEFLEIMALVGMASKPLHVRRLQKALRDWVTNPGLFNQPLTSLPVSSIPIYKLPEGSPTWLGISCSSYERSSNAREPHLKIPKCAATTCVQSLGQGKSDVVGSLALQSVGESRLWQGHHATESEHSLSPADLGSPASPKESSEALDAAAALSVAECVERMAPTLPKSDLNEVKELLKTNKKLAKMIGHIFEMNDDDPHKEEEIRKYSAIYGRFDSKRKDGKHLTLHELTVNEAAAQLCVKDNALLTRRDELFALARQISREVTYKYTYRTTKSKCGERDELSPKRIKVEDGFPDFQDSVQTLFQQARAKSEELAALSSQQPEKVMAKQMEFLCNQAGYERLQHAERRLSAGLYRQSSEEHSPNGLTSDNSDGQGERPLNLRMPNLQNRQPHHFVVDGELSRLYPSEAKSHSSESLGILKDYPHSAFTLEKKVIKTEPEDSR
For B1, the “Effect of NAB1 over-expression on PMA-induction of Prm1 activity” value ([2]; HEL, PMA 100 nM 16 h) was “significantly reduced the PMA-induction of Prm1 activity” and the “Effect of NAB1 over-expression on Prm1-directed luciferase activity” value ([2]; vehicle-treated HEL cells) was “did not significantly affect Prm1-directed luciferase activity”.
